Assays:
[1] = test system: benchmark bacterial strain having an esterase activity; test: Microbial decontamination efficiency of cleaning substances on contaminated plastic surfaces (esterase activity of swab); format: cell-based; conditions: remaining esterase activity after cleaning the plastic surface with an impregnated wipe; optical density at 414 nm; not cleaned: 3.474
Description: For this purpose, a benchmark bacterial strain having an esterase activity (isolated by traditional microbiological methods from samples collected from human foreheads) has been used to artificially contaminated surfaces. This strain has been prepared by an overnight incubation at 37° C. in LB medium. 200 μL of this cell preparation, corresponding to 6.107 cfu have been spread on five plastic surfaces and allowed to dry completely.
Samples have then been collected onto the different plastic surfaces using swabs beforehand impregnated with PBS containing 0.1% w/v of Triton X100. 16 μL of the transformable substrate (2-hydroxy-4-p-nitrophenoxy-butyl hexanoate 20 mM in DMSO) have been mixed with 184 μL of aqueous PBS buffer 0.1M pH7.3. The swab has been plunged in this mix and incubated for 1 h at 37° C. The swab has then been removed from the reaction mixture and 100 μL have been transferred to another vial. 4 μL of bovine serum albumin 50 mg/mL in water, 40 μL NaIO4 100 mM in water and 40 μL Na2CO3 200 mM in water have been added. The reaction mixture has been incubated for 10 min at room temperature and centrifuged for 15 min at 16000 g. The activity has then been quantified by measuring optical density at 414 nm.

[2] = test system: Candida albicans (ATCC 10231); conditions: 0.3% in CSL, 30° C., reduction from 10^7, 24 h
Description: (§1) An EuAB test for antimicrobial activity was performed with Corynebacterium xerosis (DSM 20743), Staphylococcus epidermidis (DSM 3269) and Candida albicans (ATCC 10231). As culture medium CSL (Casein peptone-soybean meal peptone solution), CSA (Casein peptone-soybean meal pepton agar) and Sabouraud-glucose broth/agar was used.
(§2) As dilution liquid NaCl-peptone buffer solution with inactivator (3% Tween 80, 0.3% lecithin, 0.1% histidine and 0.5% Na thiosulfate) was used. Polyglyceryl-3 caprylate was tested in 0.3% (in CSL) concentration. The test solution was prepared one day before investigation. For this, 100 ml of CSL was heated to 60° C. in a water bath. 0.3 g was weighed into 100 ml of CSL at 60° C. The preparations were shaken vigorously by hand and left overnight at 30° C. in an incubator. Corynebacterium xerosis was cultivated over 3 to 4 days. Other microbes were isolated in broth or by elutriation. For each test microbe, 20 ml of each test solution were introduced into sterile 50 ml brown glass bottles with glass beads and contaminated with 0.2 ml of microbe suspension. As controls, 20 ml of CSL were carried over per test microbe without sample.
(§3) The contaminated samples were shaken for 3 min on a shaking machine and kept in an incubator at 30° C. until removed. At the removal points (1, 2, 3, 24 and 48 hours) 1 ml was taken from each preparation and transferred in each case to 9 ml of NaCl-peptone buffer solution with inactivator and the colony number was determined. The 0 hour values given were the colony numbers of the test microbe suspension used taking into consideration the 10^−2 dilution upon sample contamination.

[3] = test system: Corynebacterium xerosis (DSM 20743); conditions: 0.3% in CSL, 30° C., reduction from 10^7, 24 h
Description: as §1, §2, §3

[4] = test system: Staphylococcus epidermidis (DSM 3269); conditions: 0.3% in CSL, 30° C., reduction from 10^7, 24 h
Description: as §1, §2, §3

CCO [70% ethanol, ethanol]
activity [1]: 0.195

O [water]
activity [1]: 0.100

polyglyceryl-3 caprylate
bacteria count (colony number) after 24 h [2]: less than 270
bacteria count (colony number) after 24 h [3]: less than 270
bacteria count (colony number) after 24 h [4]: less than 270

From patent US20070264680A1, “Method and Test-Kit for the Detection and Quantification of Organisms” (PROTEUS S.A., priority 2004, published 2007)
